The values that follow come from patent publication US20140100184A1, “SELECTIVE INHIBITORS OF HISTONE […] DOT1L” (BAYLOR COLLEGE OF MEDICINE, priority 2012, published 2014).

Assay [1] deals with T1, G9a (Mus musculus, UniProt Q9Z148).
T1 sequence (Q9Z148 1-1263): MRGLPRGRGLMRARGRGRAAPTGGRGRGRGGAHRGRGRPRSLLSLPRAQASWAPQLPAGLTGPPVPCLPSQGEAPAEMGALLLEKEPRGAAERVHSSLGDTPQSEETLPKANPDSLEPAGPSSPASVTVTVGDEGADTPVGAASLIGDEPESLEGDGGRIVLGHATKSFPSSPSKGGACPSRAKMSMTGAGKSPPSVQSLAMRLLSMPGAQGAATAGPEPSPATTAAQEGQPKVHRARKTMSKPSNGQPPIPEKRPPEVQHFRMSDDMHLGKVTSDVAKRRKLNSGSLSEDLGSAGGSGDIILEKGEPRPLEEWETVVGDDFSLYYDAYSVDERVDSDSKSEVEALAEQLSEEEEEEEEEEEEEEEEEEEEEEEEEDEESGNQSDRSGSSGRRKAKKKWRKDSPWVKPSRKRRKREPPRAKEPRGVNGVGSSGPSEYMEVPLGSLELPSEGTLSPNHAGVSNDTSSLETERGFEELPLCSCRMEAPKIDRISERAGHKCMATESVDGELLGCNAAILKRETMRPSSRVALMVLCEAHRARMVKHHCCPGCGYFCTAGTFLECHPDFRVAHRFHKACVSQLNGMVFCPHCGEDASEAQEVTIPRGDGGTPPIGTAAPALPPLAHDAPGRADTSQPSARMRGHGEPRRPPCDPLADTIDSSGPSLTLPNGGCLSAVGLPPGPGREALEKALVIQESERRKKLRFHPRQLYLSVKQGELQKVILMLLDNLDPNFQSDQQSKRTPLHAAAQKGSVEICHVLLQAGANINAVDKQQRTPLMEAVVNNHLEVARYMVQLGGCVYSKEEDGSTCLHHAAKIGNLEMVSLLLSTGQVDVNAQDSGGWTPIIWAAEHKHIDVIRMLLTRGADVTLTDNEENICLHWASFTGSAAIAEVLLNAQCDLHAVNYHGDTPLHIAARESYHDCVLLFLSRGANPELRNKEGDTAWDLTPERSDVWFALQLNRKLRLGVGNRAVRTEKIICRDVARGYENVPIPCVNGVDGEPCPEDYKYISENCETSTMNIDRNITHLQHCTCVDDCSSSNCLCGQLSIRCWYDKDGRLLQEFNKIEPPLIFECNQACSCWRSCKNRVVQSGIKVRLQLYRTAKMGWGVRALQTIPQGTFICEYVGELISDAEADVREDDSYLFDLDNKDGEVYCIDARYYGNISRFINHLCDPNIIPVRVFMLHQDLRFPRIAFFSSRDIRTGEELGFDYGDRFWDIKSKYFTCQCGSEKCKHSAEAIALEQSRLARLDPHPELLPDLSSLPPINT
Put plainly: Methyltransferase inhibition assay, G9a.

Assay [2] has as its system CARM1, PRMT1, G9a and SUV39H1. Put plainly: Inhibition of other methyltransferases, summarised over the panel. Conditions: for activity against other methyltransferases: in words.
For assay [3], the target named is T2, SUV39H1 (Homo sapiens, UniProt O43463).
T2 sequence (O43463 1-412): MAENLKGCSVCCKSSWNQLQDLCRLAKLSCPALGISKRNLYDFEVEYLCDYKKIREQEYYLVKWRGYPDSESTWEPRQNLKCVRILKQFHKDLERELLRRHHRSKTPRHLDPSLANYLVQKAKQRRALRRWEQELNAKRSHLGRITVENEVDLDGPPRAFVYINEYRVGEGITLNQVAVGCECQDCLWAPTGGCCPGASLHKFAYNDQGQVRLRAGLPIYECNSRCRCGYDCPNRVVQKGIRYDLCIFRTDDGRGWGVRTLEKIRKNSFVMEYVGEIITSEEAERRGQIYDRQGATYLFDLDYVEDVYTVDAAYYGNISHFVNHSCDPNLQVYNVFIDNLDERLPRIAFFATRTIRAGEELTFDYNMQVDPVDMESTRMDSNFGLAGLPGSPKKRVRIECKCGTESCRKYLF
Put plainly: biochemical. Further details: purchased BPS Biosciences (San Diego, Calif.).

The target in assay [4] is T3, CARM1 (Homo sapiens, UniProt Q86X55).
T3 sequence (Q86X55 1-608): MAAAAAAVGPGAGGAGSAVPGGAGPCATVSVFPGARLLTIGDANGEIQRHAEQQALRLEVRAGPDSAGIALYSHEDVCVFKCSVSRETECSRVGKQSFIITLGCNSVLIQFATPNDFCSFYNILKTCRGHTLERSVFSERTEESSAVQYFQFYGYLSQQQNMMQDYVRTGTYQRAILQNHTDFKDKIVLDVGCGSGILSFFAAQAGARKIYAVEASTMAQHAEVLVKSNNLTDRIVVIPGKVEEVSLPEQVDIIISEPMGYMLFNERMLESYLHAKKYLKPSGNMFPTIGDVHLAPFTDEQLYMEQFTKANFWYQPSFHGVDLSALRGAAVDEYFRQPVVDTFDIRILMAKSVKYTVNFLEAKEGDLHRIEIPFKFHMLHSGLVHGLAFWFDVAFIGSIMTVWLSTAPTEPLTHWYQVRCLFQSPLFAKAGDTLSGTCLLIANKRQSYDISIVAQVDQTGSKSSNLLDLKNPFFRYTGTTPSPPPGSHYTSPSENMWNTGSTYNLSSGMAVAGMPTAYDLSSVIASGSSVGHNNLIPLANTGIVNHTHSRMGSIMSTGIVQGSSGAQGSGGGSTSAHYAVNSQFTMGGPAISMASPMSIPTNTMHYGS
Put plainly: biochemical. Also on record: GST (from pGEX-KG vector) (N); made in house; host or cells: E. coli (as for hDOT1L); plasmid pGEX-KG-CARM1 from Dr. Qin Feng.

Assay [5] deals with T4, PRMT1 (Homo sapiens, UniProt Q99873). Put plainly: Methyltransferase inhibition assay, PRMT1. It counts as biochemical. Also on record: purchased BPS Biosciences (San Diego, Calif.).
For assay [6], the target named is T5, DOT1L (Homo sapiens, UniProt Q8TEK3).
T5 construct: Human DOT1 L(1-472) was expressed and purified as described in the literature; GST (N, cleaved yes); made in house; host or cells: E. coli BL21-CodonPlus (Agilent), plasmid pGEX-KG-hDOT1L(1-472)
Conditions: literature values; read-out: Km value for DOT1L, recent publication; cited from earlier work.

The target of assay [7] is T5, DOT1L. Description: Determination of Km values of SAM and substrate, DOT1L. Conditions: 30° C., 10 min, pH=8.0. It is filed as biochemical.
Assay [8] deals with T1, G9a. Conditions: read-out: Km value of SAM for G9a.
In assay [9] the target is T3, CARM1. Conditions: read-out: Km value of SAM for CARM1.
Assay [10] addresses T4, PRMT1. Conditions: read-out: Km value of SAM for PRMT1; from the literature; cited from earlier work.
Assay [11] deals with T2, SUV39H1. Conditions: read-out: Km value of SAM for SUV39H1.

Structures can show the parent of a compound that is named as a salt. Where two headings read alike, the source gives them in different places.

T4 sequence (Q99873 whole entry): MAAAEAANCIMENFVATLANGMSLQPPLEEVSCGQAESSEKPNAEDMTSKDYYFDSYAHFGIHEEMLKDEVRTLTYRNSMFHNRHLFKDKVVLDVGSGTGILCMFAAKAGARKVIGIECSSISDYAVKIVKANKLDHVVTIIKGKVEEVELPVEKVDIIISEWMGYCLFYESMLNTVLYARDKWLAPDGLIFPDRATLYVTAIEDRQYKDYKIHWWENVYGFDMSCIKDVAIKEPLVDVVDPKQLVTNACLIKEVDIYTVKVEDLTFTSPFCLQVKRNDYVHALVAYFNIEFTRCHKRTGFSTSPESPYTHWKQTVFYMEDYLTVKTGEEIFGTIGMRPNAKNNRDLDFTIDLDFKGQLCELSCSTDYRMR
T5 sequence (Q8TEK3 1-472): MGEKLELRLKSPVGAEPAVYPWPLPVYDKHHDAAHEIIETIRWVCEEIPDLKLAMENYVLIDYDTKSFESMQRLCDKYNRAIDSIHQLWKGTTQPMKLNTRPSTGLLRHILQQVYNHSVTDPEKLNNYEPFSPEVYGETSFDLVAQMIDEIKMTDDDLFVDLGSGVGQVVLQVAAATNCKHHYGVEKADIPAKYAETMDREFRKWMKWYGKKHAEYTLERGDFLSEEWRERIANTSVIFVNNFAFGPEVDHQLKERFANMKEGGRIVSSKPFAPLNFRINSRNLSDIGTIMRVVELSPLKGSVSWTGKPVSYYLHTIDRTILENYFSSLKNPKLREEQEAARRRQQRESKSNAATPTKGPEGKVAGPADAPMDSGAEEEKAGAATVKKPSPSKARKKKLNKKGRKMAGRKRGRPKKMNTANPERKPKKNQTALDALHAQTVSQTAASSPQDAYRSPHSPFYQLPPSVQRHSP

On to `CNc1ncnc2c1ncn2[C@@H]1O[C@H](CN(CCI)CCC[C@H](N)C(=O)O)C(O)[C@@H]1O` (stereo partly drawn) [Compound 5, N^δ-[5′-(N^6-Methyl-adenosyl)]-N^δ-(2-iodoethyl)-(S)-2,5-diaminopentanoic acid hydrochloride], for which the IC50 in assay [1], in [3] and in [4] was over 100 µM in each case. Besides, in [2], the “activity against other methyltransferases” value is “essentially inactive”.

Regarding `Nc1ncnc2c1ncn2[C@@H]1O[C@H](CN(CCI)CCC[C@H](N)C(=O)O)C(O)[C@@H]1O` (stereo partly drawn) [Compound 4, N^δ-(5′-Adenosyl)-N^δ-(2-iodoethyl)-(S)-2,5-diaminopentanoic-acid hydrochloride], the IC50 – broadly, the concentration needed to halve the response being measured – is 1.8 µM in assay [1]; at least 1.1 µM in assay [2] (read-out: IC50 values on other methyltransferases, span over the four enzymes); over 100 µM in assay [3]; 1.1 µM in assay [4].

As to `N[C@@H](CCSC[C@H]1O[C@@H](n2cnc3c(NCc4ccccc4)ncnc32)[C@H](O)[C@@H]1O)C(=O)O` [Compound 2, S-(N^6-Benzyl-adenosyl)-L-homocysteine], the Ki (commonly the dissociation constant of the complex between target and ligand, obtained from inhibition or displacement) in assay [1] was over 100 µM; in assay [3] it was over 100 µM; in assay [4] it was 18 µM. Besides, the “activity on G9a” value in assay [1] is “inactive”.

Take `Nc1ncnc2c1ncn2[C@@H]1O[C@H](CSCC[C@H](N)C(=O)O)[C@@H](O)[C@H]1O` [SAH, S-(5′-adenosyl)-L-homocysteine, reference compound]: in assay [1], the Ki was found to be 0.57 µM.

`N[C@@H](CCCN(CCI)C[C@H]1O[C@@H](n2cnc3c(NCc4ccccc4)ncnc32)[C@@H](O)C1O)C(=O)O` (stereo partly drawn) [Compound 6, N^δ-[5′-(N^6-Benzyl-adenosyl)]-N^δ-(2-iodoethyl)-(S)-2,5-diaminopentanoic acid hydrochloride]: the IC50 in assay [1], in assay [5], in assay [3] and in assay [4] was over 100 µM in each case. Moreover, in assay [2], the “activity against other methyltransferases” value was “essentially inactive”.

For the molecule `C[S+](CC[C@H](N)C(=O)O)C[C@H]1O[C@@H](n2cnc3c(N)ncnc32)[C@H](O)[C@@H]1O` (stereo partly drawn) [SAM, S-(5′-adenosyl)-L-methionine], the Km (commonly the concentration of substrate that gives half-maximal velocity) in assay [6] was 0.65 µM; in assay [7] it was 0.76 µM; in assay [8] it was 14.1 µM; in assay [9] it was 1.6 µM; in [10], 6 µM; in assay [11] it was 27.9 µM.

`Nc1ncnc2c1ncn2[C@@H]1O[C@H](CN(CCI)CC[C@H](N)C(=O)O)C(O)[C@@H]1O` (stereo partly drawn) [Compound 3, N^γ-(5′-Adenosyl)-N^γ-(2-iodoethyl)-(S)-2,4-diaminobutyric acid hydrochloride]: the IC50 is over 100 µM in assay [1], over 100 µM in [3] and 46.4 µM in assay [4].

`CNc1ncnc2c1ncn2[C@@H]1O[C@H](CSCC[C@H](N)C(=O)O)[C@@H](O)[C@H]1O` [Compound 1, S-(N^6-Methyl-adenosyl)-L-homocysteine] showed a Ki in [1] of over 100 µM.
